# Measured values reported in patent US8580301B2, “Psychostimulant containing pharmaceutical composition” (PEJO Iserlohn Heilmittel und Diaet GmbH & Co. KG, priority 2004, dated 2013).
# Structures can show the parent of a compound that is named as a salt.
# What was measured:
# [1] = Stability in alkaline solution; assay type: physicochemical
# [2] = Solubility of methylphenidate hydrochloride in aqueous media / Ph. Eur. buffer solutions; assay type: physicochemical
compound,measurement,setting,value
COC(=O)C(c1ccccc1)C1CCCCN1 (stereo not drawn) [methylphenidate hydrochloride],stability in alkaline solution,[1],hydrolysis occurs
same,solubility of the maximum daily dose of 60 mg in buffer solutions of the European Pharmacopoeia,"[2]; 60 mg in 250 ml hydrochloric acid pH 1.2, or 250 ml potassium dihydrogen phosphate buffer pH 4.6 or 6.8",dissolves easily
same,water solubility,[2]; aqueous media,extremely water soluble
